What was measured:
Type in all cases: cell-based
[1] = tested on: NCl-H358 cells; experiment: Assay I of bioactive molecules on cell viability in vitro (CCK8); conditions: Homo sapiens, read-out: EC50(nM), killing of NCl-H358 cells
Experimental: (§1) Tumor cells were first cultured; the bioactive molecules of the present disclosure were co-cultured with tumor cells, and then CCK8 reagent (Dojindo Laboratories (Shanghai), Cat: CK04, Lot: JJ744) was added, and the activity of dehydrogenase in mitochondria was detected by reading (detection wavelength 450 nm) on a microplate reader (manufacturer: Molecular Devices, model: SpectraMax M2), to evaluate the inhibitory effect of bioactive molecules on cell proliferation.
(§2) In vitro cell viability assay method: bioactive molecules (12 concentration gradients) were diluted with corresponding assay medium (containing 2% FBS). The tumor cells were digested by conventional methods using trypsin, and cells in tube were collected and counted, then resuspended in the corresponding assay media (containing 2% FBS). The diluted bioactive molecules were added to a 96-well plate, followed by the cells. Then, 20 μL of CCK8 reagent was added to each well, and the reaction was carried out for 4 h, then the plate was read on a microplate reader (detection wavelength was 450 nm). The experimental results are shown in Tables 6.1, 6.2, 6.3, 6.4, and 6.5.

[2] = tested on: HT29 cells; experiment: as above; conditions: Homo sapiens, HT-29, CCK8; read-out: EC50(nM), killing of HT29 cells
Experimental: as §1, §2

[3] = tested on: HT29 cells; experiment: Assay III of bioactive molecules on cell viability in vitro (CCK8); conditions: Homo sapiens, HT-29; CCK8, 3-4 days (Assay III); read-out: EC50(nM), killing of HT29 cells
Experimental: Tumor cells HT29 (having a same source as the above) were first cultured. The bioactive molecules or fragments of the present disclosure were co-cultured with tumor cells, and then CCK8 reagent (Dojindo Laboratories (Shanghai), Cat: CK04, Lot: JJ744) was added, and the activity of dehydrogenase in mitochondria was detected by reading (detection wavelength 450 nm) on a microplate reader (manufacturer: Molecular Devices, model: SpectraMax M2), to evaluate the inhibitory effect of bioactive molecules on cell proliferation.
(§3) In vitro cell viability assay method: the tumor cells were digested by conventional methods using trypsin, and cells in tube were collected and counted, and then resuspended in the corresponding assay media (containing 2% FBS), which was added to a 96-well plate at 5000-10000 cells/well. Bioactive molecules were diluted with DMSO, and then added to a 96-well plate at 100 μL, the initial concentration was 10M, followed by 3-fold serial dilution (12 concentration gradients). The plate was incubated for 3-4 days at 37° C. under 5% CO2. Then, 20 μL of CCK8 reagent was added to each well, and the reaction was carried out for 2-6 h. The plate was read on a microplate reader (detection wavelength was 450 nm).

[4] = tested on: LS174T cells; experiment: Assay I of bioactive molecules on cell viability in vitro (CCK8); conditions: Homo sapiens, read-out: EC50(nM), killing of LS174T cells
Experimental: as §1, §2

[5] = tested on: A431; experiment: Assay II of bioactive molecules on cell viability in vitro (CCK8); conditions: Homo sapiens, A-431; CCK8, 3-4 days
Experimental: as §1, with “Tumor cells NUCG-4, PC-9, HT29, NCI-H358, KYSE520, A431 and A549 were first” for “Tumor cells were first”, “bioactive molecules or fragments of the” for “bioactive molecules of the”
as §3, with “and then 100 μL was added to” for “and then added to”, “a 96-well plate, the initial” for “a 96-well plate at 100 μL, the initial”, “concentration was 10 μM, followed by” for “concentration was 10M, followed by”

[6] = tested on: PC-9; experiment: as above; conditions: Homo sapiens, CCK8, 3-4 days
Experimental: as §1, with “Tumor cells NUCG-4, PC-9, HT29, NCI-H358, KYSE520, A431 and A549 were first” for “Tumor cells were first”, “bioactive molecules or fragments of the” for “bioactive molecules of the”
as §3, with “and then 100 μL was added to” for “and then added to”, “a 96-well plate, the initial” for “a 96-well plate at 100 μL, the initial”, “concentration was 10 μM, followed by” for “concentration was 10M, followed by”

[7] = tested on: HT29; experiment: as above; conditions: Homo sapiens, HT-29; CCK8, 3-4 days
Experimental: as §1, with “Tumor cells NUCG-4, PC-9, HT29, NCI-H358, KYSE520, A431 and A549 were first” for “Tumor cells were first”, “bioactive molecules or fragments of the” for “bioactive molecules of the”
as §3, with “and then 100 μL was added to” for “and then added to”, “a 96-well plate, the initial” for “a 96-well plate at 100 μL, the initial”, “concentration was 10 μM, followed by” for “concentration was 10M, followed by”

[8] = tested on: NCI-H358; experiment: as above; conditions: Homo sapiens, CCK8, 3-4 days
Experimental: as §1, with “Tumor cells NUCG-4, PC-9, HT29, NCI-H358, KYSE520, A431 and A549 were first” for “Tumor cells were first”, “bioactive molecules or fragments of the” for “bioactive molecules of the”
as §3, with “and then 100 μL was added to” for “and then added to”, “a 96-well plate, the initial” for “a 96-well plate at 100 μL, the initial”, “concentration was 10 μM, followed by” for “concentration was 10M, followed by”

[9] = tested on: A549; experiment: as above; conditions: Homo sapiens, CCK8, 3-4 days
Experimental: as §1, with “Tumor cells NUCG-4, PC-9, HT29, NCI-H358, KYSE520, A431 and A549 were first” for “Tumor cells were first”, “bioactive molecules or fragments of the” for “bioactive molecules of the”
as §3, with “and then 100 μL was added to” for “and then added to”, “a 96-well plate, the initial” for “a 96-well plate at 100 μL, the initial”, “concentration was 10 μM, followed by” for “concentration was 10M, followed by”

[10] = tested on: NUCG-4; experiment: as above; conditions: CCK8, 3-4 days
Experimental: as §1, with “Tumor cells NUCG-4, PC-9, HT29, NCI-H358, KYSE520, A431 and A549 were first” for “Tumor cells were first”, “bioactive molecules or fragments of the” for “bioactive molecules of the”
as §3, with “and then 100 μL was added to” for “and then added to”, “a 96-well plate, the initial” for “a 96-well plate at 100 μL, the initial”, “concentration was 10 μM, followed by” for “concentration was 10M, followed by”

Row | SMILES | EC50 [1] | EC50 [2] | also measured
1 | CC[C@@]1(O)C(=O)OCc2c1cc1n(c2=O)Cc2c-1nc1cc(F)c(C)cc1c2CCCO [Example A1.10, (S)-4-ethyl-8-fluoro-4-hydroxy-11-(3-hydroxypropyl)-9-methyl-1,12-dihydro-14H-pyrano[3′,4′:6,7]indolizino[1,2-b]quinolin-3,14(4H)-dione] | 8.11 nM | 5.96 nM | 
2 | CC[C@@]1(O)C(=O)OCc2c1cc1n(c2=O)Cc2c-1nc1cc(F)c(C)cc1c2CCCOCNC(=O)CN [Example B1.12, (S)-2-amino-N-((4-(4-ethyl-8-fluoro-4-hydroxy-9-methyl-3,14-dioxo-3,4,12,14-tetrahydro-1H-pyrano[3′,4′:6,7]indolizino[1,2-b]quinolin-11-yl)propoxy)methyl)acetamide] |  |  | EC50 [3]: 85.9 nM
3 | CC[C@@]1(O)C(=O)OCc2c1cc1n(c2=O)Cc2c-1nc1cc(F)c(C)cc1c2/C=C/COCNC(=O)CN [Example B1.17, (S,E)-2-amino-N-(((3-(4-ethyl-8-fluoro-4-hydroxy-9-methyl-3,14-oxo-3,4,12,14-tetrahydro-1H-pyrano[3′,4′:6,7]indolizino[1,2-b]quinolin-11-yl)allyl)oxy)methyl)acetamide] |  |  | EC50 [3]: 205 nM
4 | CCCNCCc1c2c(nc3cc4c(cc13)OCO4)-c1cc3c(c(=O)n1C2)COC(=O)[C@]3(O)CC [Example A1.15a, (S)-7-ethyl-7-hydroxy-14-(2-(n-propylamino)ethyl)-10,13-dihydro-11H-[1,3]dioxolo[4,5-g]pyrano[3′,4′:6,7]indolizino[1,2-b]quinolin-8,11(7H)-dione] | 3.88 nM | 3.57 nM | EC50 [4]: 19.5 nM
5 | CCCN(CCc1c2c(nc3cc4c(cc13)OCO4)-c1cc3c(c(=O)n1C2)COC(=O)[C@]3(O)CC)C(=O)CO [Example A1.15b, (S)—N-(2-(7-ethyl-7-hydroxy-8,11-dioxo-7,8,11,13-tetrahydro-10H-[1,3]dioxolo[4,5-g]pyrano[3′,4′:6,7]indolizino[1,2-b]quinolin-14-yl)ethyl)-2-hydroxy-N-n-propylacetamide] |  | 47.5 nM | EC50 [4]: 44.6 nM
6 | CC[C@@]1(O)C(=O)OCc2c1cc1n(c2=O)Cc2c-1nc1cc3c(cc1c2/C=C/CN)OCO3 [Example A1.12, (S,E)-14-(3-amino-1-propylen-1-yl)-7-ethyl-7-hydroxy-10,13-dihydro-11H-[1,3]dioxolo[4,5-g]pyrano[3′,4′:6,7]indolizino[1,2-b]quinolin-8,11(7H)-dione] | 167 nM | 212 nM | 
7 | CC[C@@]1(O)C(=O)OCc2c1cc1n(c2=O)Cc2c-1nc1cc(F)c(C)cc1c2/C=C/CO [Example A1.14, (S,E)-4-ethyl-8-fluoro-4-hydroxy-11-(3-hydroxy-1-propylen-1-yl)-9-methyl-1,12-dihydro-14H-pyrano[3′,4′:6,7]indolizino[1,2-b]quinolin--3,14(4H)-dione] | 123 nM | 156 nM | 
8 | CC[C@@]1(O)C(=O)OCc2c1cc1n(c2=O)Cc2c-1nc1cc3c(cc1c2/C=C/CO)OCO3 [Example A1.13, (S,E)-14-(3-hydroxy-1-propylen-1-yl)-7-ethyl-7-hydroxy-10,13-dihydro-11H-[1,3]dioxolo[4,5-g]pyrano[3′,4′:6,7]indolizino[1,2-b]quinolin-8,11(7H)-dione] | 49.2 nM | 96.8 nM | 
9 | CC[C@@]1(O)C(=O)OCc2c1cc1n(c2=O)Cc2c-1nc1cc3c(cc1c2CCCOCNC(=O)CN)OCO3 [Example B1.14, (S)-2-amino-N-((3-(7-ethyl-7-hydroxy-8,11-dioxo-7,8,11,13-tetrahydro-10H-[1,3]dioxolo[4,5-g]pyrano[3′,4′:6,7]indolizino[1,2-b]quinolin-14-yl)propoxy)methyl)acetamide] |  |  | EC50 [5]: 68 nM; EC50 [6]: 34.3 nM; EC50 [7]: 368 nM; EC50 [8]: 581 nM; EC50 [9]: 252 nM; EC50 [10]: 185 nM
10 | CC[C@@]1(O)C(=O)OCc2c1cc1n(c2=O)Cc2c-1nc1cc3c(cc1c2-c1ccc(N)cc1)OCO3 [Example A1.4, (S)-14-(4-aminophenyl)-7-ethyl-7-hydroxy-10,13-dihydro-11H-[1,3]dioxolo[4,5-g]pyrano[3′,4′:6,7]indolizino[1,2-b]quinolin-8,11(7H)-dione] | 29.9 nM | 29.4 nM | 
11 | CC[C@@]1(O)C(=O)OCc2c1cc1n(c2=O)Cc2c-1nc1cc3c(cc1c2CCNC(C)C)OCO3 [Example A1.8D, (S) 7-ethyl-7-hydroxy-14-(2-(isopropylamine)ethyl)-10,13-dihydro-11H-[1,3]dioxolo[4,5-g]pyrano[3′,4′:6,7]indolizino[1,2-b]quinolin-8,11(7H)-dione] | 7.92 nM |  | 
12 | CC[C@@]1(O)C(=O)OCc2c1cc1n(c2=O)Cc2c-1nc1cc(F)c(C)cc1c2CCCN [Example A1.11, (S)-4-ethyl-8-fluoro-4-hydroxy-11-(3-aminopropyl)-9-methyl-1,12-dihydro-14H-pyrano[3′,4′:6,7]indolizino[1,2-b]quinolin-3,14(4H)-dione] | 203 nM | 284 nM | 
13 | CC[C@@]1(O)C(=O)OCc2c1cc1n(c2=O)Cc2c-1nc1cc3c(cc1c2CCN(C(=O)CO)C(C)C)OCO3 [Example A1.8, (S)—N-(2-(7-ethyl-7-hydroxy-8,11-dioxo-7,8,11,13-tetrahydro-10H-[1,3]dioxolo[4,5-g]pyrano[3′,4′:6,7]indolizino[1,2-b]quinolin-14-yl)ethyl)-2-hydroxy-N-isopropylacetamide] | 296 nM | 367 nM | 
14 | CC[C@@]1(O)C(=O)OCc2c1cc1n(c2=O)Cc2c-1nc1cc3c(cc1c2-c1ccc(NC(=O)CN)cc1)OCO3 [Example B1.9, (S)-2-amino-N-(4-(7-ethyl-7-hydroxy-8,11-dioxo-7,8,11,13-tetrahydro-10H-[1,3]dioxolo[4,5-g]pyrano[3′,4′:6,7]indolizino[1,2-b]quinolin-14-yl)phenyl)acetamide] |  |  | EC50 [3]: 262 nM

Reference: patent US20240108745A1, “BIOACTIVE SUBSTANCE CONJUGATE, PREPARATION METHOD THEREFOR AND USE THEREOF” (MEDILINK THERAPEUTICS (SUZHOU) CO., LTD., priority 2021, published 2024)
